{
  "source": "patent US12668803B2",
  "about": "“Glypican-3-specific modified aptamer and use thereof” (APTAMER SCIENCES INC., priority 2019, dated 2026)",
  "format_in_all_cases": "cell-based",
  "key": {"[1]": {"tested_on": "GPC3-expressing hepatoma cells", "test": "Cell-killing effect (CCK-8) of gemcitabine-bound combi aptamers", "conditions": "FIG. 23 and FIG. 24", "protocol": "In detail, Huh-7 cells (ATCC, Rockville, MD, USA) were seeded in a 96-well plate at a density of 1×10^4/mL, and cultured using a DMEM (Gibco, Grand Island, NY, USA) medium containing 10% FBS (Gibco, Grand Island, NY, USA) and 1% antibiotics (penicillin/streptomycin) under conditions of 5% CO2 and 37° C. Next day, the aptamer stock (100 μM) was mixed with 5×SB18 buffer to prepare the stock at a concentration of 80 μM, and heated at 95° C. for 5 min, and then cooled at room temperature for 15 min or more. The medium was removed from the cultured cells, and 100 μL of a serum-free medium was added thereto, and cultured under conditions of 37° C. and 5% CO2 for 1 hr. The serum-free medium was removed, and then the cells were washed with 100 μL of 1×PBS. 100 μL of KRPH buffer was added, and cultured under conditions of 37° C. and 5% CO2 for 1 hr. The aptamer was diluted with KRPH buffer to 2-fold of the desired concentration, and added to a 96-well plate at 1× concentration, and cultured under conditions of 37° C. and 5% CO2 for 4 hr. After treatment with the aptamer, the KRPH buffer was removed, and then 100 μL of culture medium was added and cultured under conditions of 37° C. and 5% CO2 for […]. 6 days later, 10 μL of a kit solution of CCK-8 (Cell Counting Kit-8) was added to each well, and then cultured under conditions of 37° C. and 5% CO2 for 3 hr. Cell death levels were examined at […] using a microplate reader."}, "[2]": {"tested_on": "hepatoma cells (Hep3B, HepG2)", "test": "Cell cycle analysis (propidium iodide, FACS)", "conditions": "4 hr treatment, FIGS. 25 and 26", "protocol": "(§1) To analyze the effects of combi 4 and combi 5 bound with three or five gemcitabines on the cell cycle of hepatoma cells, cell cycle analysis was performed. In detail, Hep3B, HepG2, and A431 cells were seeded in a 6-well plate at a density of 1×10^6/ml, and cultured using a DMEM medium containing 10% FBS and 1% antibiotics (penicillin/streptomycin) under conditions of 5% CO2 and 37° C., respectively. Next day, 100 μM of the modified aptamer stock was mixed with 5×SB18 buffer to prepare the aptamer at a concentration of 80 μM, and heated at 95° C. for 5 min, and then cooled at room temperature for 15 min or more. The medium was removed from the cultured cells, and replaced by a serum-free medium, and cultured under conditions of 37° C. and 5% CO2 for 1 hr. The serum-free medium was removed, and then the cells were washed with 2 ml of 1×PBS. 2 ml of KRPH buffer was added, and cultured under conditions of 37° C. and 5% CO2 for 1 hr. The aptamer was added, and cultured under conditions of 37° C. and 5% CO2 for 4 hr. The KRPH buffer was removed, and 2 ml of 1×PBS was added thereto to perform washing, and then PBS was removed. 2 ml of 1×PBS was added, and cells were scraped using a scraper, and collected in FACs tubes, followed by centrifugation at 4° C. and 2000 rpm for 4 minutes. 1/500-fold diluted RNAase A and propidium iodide diluted with PBS at a concentration of 50 μg/ml were added to the FACs tubes at a volume of 500 μL, followed by pipetting. Incubation was performed at room temperature for 30 min while blocking the light, and then cell cycle was measured."}, "[3]": {"tested_on": "squamous cell carcinoma cells (A431)", "test": "Cell cycle analysis (propidium iodide, FACS)", "conditions": "4 hr treatment, FIG. 27", "protocol": "as §1"}},
  "data": [
    {"substance": "Combi 5 G(3) (DNA GNGAANGCGNNGAANNANWYSSSNNCAGNCANCAC; gemcitabines, 2'-OMe, 2'-F, BzdU, 3' idT; Combi 5 G(3); (1)..(1) G is 2-O-Methoxy-DNA.; (2)..(2) n is BzdU.; (3)..(3) G is 2-O-Methoxy-DNA.; (4)..(4) A is 2-Fluorine-DNA.; (5)..(5) A is 2-Fluorine-DNA.; (6)..(6) n is BzdU.; (10)..(10) n is BzdU.; (11)..(11) n is BzdU.; (12)..(12) G is 2-Fluorine-DNA.; (13)..(13) A is 2-Fluorine-DNA.; (14)..(14) A is 2-O-Methoxy-DNA.; (15)..(15) n is BzdU.; (16)..(16) n is BzdU.; (17)..(17) A is 2-O-Methox)", "values": [
      {"measurement": "concentration from which a cell-killing effect is shown", "setting": "[1]", "result": 100, "unit": "nM"},
      {"measurement": "cell cycle arrest", "setting": "[2]", "result": "arrested hepatoma cells at the G1/S phase"},
      {"measurement": "cell cycle arrest", "setting": "[3]", "result": "no cell cycle arrest"}
    ]}
  ]
}
